One may read the GI50 as the concentration at which growth is held to half of that of the control. As a reminder, the solubility is the concentration that dissolves in the medium under given conditions. The low end stands for a poorly soluble substance, the high end for a readily soluble substance. A word on the Cmax: it is the peak of the concentration-time curve. One may read the AUC as the area under the concentration-time curve, a measure of exposure. A low value points to less exposure.

In brackets after ≈: the same amount, converted by molar mass. Activity calls are given as the source filed them. The rule behind the calls is not given here.

For data set [1], the system named is SJSA-1. Kind of data set: Antiproliferative activity against human SJSA1 cells expressing wildtype p53 after 3 days by luminescent cell viability assay. To be noted: SJSA-1, 72 h. It counts as functional.
Data set [2] is described as follows: Metabolic stability in mouse hepatic microsome assessed as compound remaining measured at 1 uM after 30 mins by LC-MS/MS analysis. It counts as ADME. To be noted: liver microsomes, read-out: Stability. (Liver microsomes are a subcellular fraction often used to study metabolism.)
A short description of data set [3]: Antiproliferative activity against human DLD1 cells expressing mutant p53 after 3 days by luminescent cell viability assay. Format: cell-based, DLD-1.
Data set [4] in a line: Solubility in phosphate buffer at 10 mM at pH 6.8 by HPLC analysis. Format: physicochemical.
The nature of data set [5]: Cmax in mouse at 25 mg/kg, po. To be noted: in vivo. Also noted: dose 25 mg/kg, route oral. Format: ADME, organism-based.
The nature of data set [6]: Cmax in mouse at 50 mg/kg, po. Format: ADME, organism-based. Also noted: dose 50 mg/kg, route oral. The conditions noted are these: in vivo.
A short description of data set [7]: Cmax in mouse at 100 mg/kg, po. It counts as ADME, organism-based. Also noted: dose 100 mg/kg, route oral. The conditions noted are these: in vivo.
A short description of data set [8]: AUC in mouse plasma at 25 mg/kg, po. It counts as ADME, organism-based. Set-up: dose 25 mg/kg, route oral.
The nature of data set [9]: AUC in mouse plasma at 50 mg/kg, po. It counts as ADME, organism-based. Also noted: dose 50 mg/kg, route oral.
Data set [10] in a line: AUC in mouse plasma at 100 mg/kg, po. It counts as ADME, organism-based. Set-up: dose 100 mg/kg, route oral.
Data set [11] is described as follows: Plasma concentration in mouse at 25 mg/kg, po after 3 hrs. Format: ADME, organism-based. Also noted: dose 25 mg/kg, route oral.
Data set [12] is described as follows: Plasma concentration in mouse at 50 mg/kg, po after 3 hrs. Also noted: dose 50 mg/kg, route oral. Format: ADME, organism-based.
The nature of data set [13]: Plasma concentration in mouse at 100 mg/kg, po after 3 hrs. It counts as ADME, organism-based. Set-up: dose 100 mg/kg, route oral.
Data set [14] is described as follows: Plasma concentration in mouse at 25 mg/kg, po after 6 hrs. It counts as ADME, organism-based. Set-up: dose 25 mg/kg, route oral.
A short description of data set [15]: Plasma concentration in mouse at 50 mg/kg, po after 6 hrs. It counts as ADME, organism-based. Also noted: dose 50 mg/kg, route oral.
Data set [16] in a line: Plasma concentration in mouse at 100 mg/kg, po after 6 hrs. It counts as ADME, organism-based. Set-up: dose 100 mg/kg, route oral.
Data set [17] can be described thus: Plasma concentration in mouse at 50 mg/kg, po after 19 hrs. It counts as ADME, organism-based. Also noted: dose 50 mg/kg, route oral.
Data set [18] can be described thus: Plasma concentration in mouse at 100 mg/kg, po after 19 hrs. Format: ADME, organism-based. Set-up: dose 100 mg/kg, route oral.
Data set [19] is described as follows: Plasma concentration in mouse at 50 mg/kg, po after 24 hrs. Set-up: dose 50 mg/kg, route oral. Format: ADME, organism-based.
Data set [20] in a line: Plasma concentration in mouse at 100 mg/kg, po after 24 hrs. Format: ADME, organism-based. Also noted: dose 100 mg/kg, route oral.
For data set [21], the system named is SJSA-1. Kind of data set: Antitumor activity against human SJSA1 cells xenografted in BALB/c SLc-nu/nu mouse assessed as tumor growth inhibition at 100 mg/kg, po compound administered from day 17 to 20 (qdx4) measured on day 25 (reference value: 0%). To be noted: read-out: TGI. It counts as functional. A general note: In xenograft studies the graft and the host belong to different species.

Data set [22] concerns SJSA-1. Kind of data set: Antitumor activity against human SJSA1 cells xenografted in BALB/c SLc-nu/nu mouse assessed as tumor growth inhibition at 50 mg/kg, po compound administered from day 17 to 20 (qdx4) measured on day 25 (reference value: 0%). It counts as functional. To be noted: read-out: TGI.
For data set [23], the system named is SJSA-1. The experiment in a line: Antitumor activity against human SJSA1 cells xenografted in BALB/c SLc-nu/nu mouse assessed as tumor growth inhibition at 25 mg/kg, po compound administered from day 17 to 20 (qdx4) measured on day 25 (reference value: 0%). It counts as functional. To be noted: read-out: TGI.
Data set [24] relates to SJSA-1. The experiment in a line: Antitumor activity against human SJSA1 cells xenografted in BALB/c SLc-nu/nu mouse assessed as tumor growth inhibition at 12.5 mg/kg, po compound administered from day 17 to 20 (qdx4) measured on day 25 (reference value: 0%). It counts as functional. The conditions noted are these: read-out: TGI.
Data set [25] has as its system Mus musculus. The experiment in a line: Toxicity in human SJSA1 cells xenografted in BALB/c SLc-nu/nu mouse assessed as body weight loss at 100 mg/kg, po compound administered from day 17 to 20 (qdx4) measured on day 25 (reference value: <0%). Format: organism-based, SJSA-1. Also noted: dose 100 mg/kg, route oral. To be noted: in vivo.
Data set [26] relates to Mus musculus. Kind of data set: Toxicity in human SJSA1 cells xenografted in BALB/c SLc-nu/nu mouse assessed as body weight loss at 50 mg/kg, po compound administered from day 17 to 20 (qdx4) measured on day 25 (reference value: <0%). It counts as organism-based, SJSA-1. Set-up: dose 50 mg/kg, route oral. To be noted: in vivo.
Data set [27] concerns Mus musculus. The experiment in a line: Toxicity in human SJSA1 cells xenografted in BALB/c SLc-nu/nu mouse assessed as body weight loss at 25 mg/kg, po compound administered from day 17 to 20 (qdx4) measured on day 25 (reference value: <0%). Format: organism-based, SJSA-1. Set-up: dose 25 mg/kg, route oral. To be noted: in vivo.
Data set [28] relates to Mus musculus. The experiment in a line: Toxicity in human SJSA1 cells xenografted in BALB/c SLc-nu/nu mouse assessed as body weight loss at 12.5 mg/kg, po compound administered from day 17 to 20 (qdx4) measured on day 25 (reference value: <0%). It counts as organism-based, SJSA-1. Set-up: dose 12.5 mg/kg, route oral. To be noted: in vivo.
The test system of data set [29] is SJSA-1. The experiment in a line: Antitumor activity against human SJSA1 cells xenografted in BALB/c SLc-nu/nu mouse assessed as increase in p53 accumulation in tumor at 25 to 100 mg/kg, po single dose by Western blot analysis. Format: functional, organism-based.
Data set [30] concerns SJSA-1. Kind of data set: Antitumor activity against human SJSA1 cells xenografted in BALB/c SLc-nu/nu mouse assessed as increase in p21 accumulation in tumor at 12.5 mg/kg, po single dose by Western blot analysis. Set-up: dose 12.5 mg/kg. Format: functional, organism-based.
Data set [31] concerns SJSA-1. The experiment in a line: Antitumor activity against human SJSA1 cells xenografted in BALB/c SLc-nu/nu mouse assessed as increase in Mdm2 accumulation in tumor at 12.5 mg/kg, po single dose by Western blot analysis. Format: functional, organism-based. Set-up: dose 12.5 mg/kg.
Data set [32] deals with SJSA-1. Kind of data set: Induction of apoptosis in human SJSA1 cells xenografted in BALB/c SLc-nu/nu mouse assessed as PARP cleavage in tumor at 12.5 mg/kg, po single dose by Western blot analysis. Format: functional, organism-based. Set-up: dose 12.5 mg/kg.

The compound `CC(C)C1=C(C(=O)N2[C@H](C)CC[C@H]2C(=O)N2CCN(C)[C@H](C)C2)SC2=N[C@@](C)(c3ccc(Cl)cc3)[C@@H](c3ccc(Cl)cc3)N21` displayed a GI50 with SJSA-1 [1] of 850 nM. The remaining at 0.5 h, 1 µM in [2] was 74%.

Take `CC(C)C1=C(C(=O)N2[C@H](C)CC[C@H]2C(=O)N2CCNC3(CC3)C2)SC2=N[C@@](C)(c3ccc(Cl)cc3)[C@@H](c3ccc(Cl)cc3)N21`: the GI50 in the data set with SJSA-1 [1] was determined as 650 nM. Also, in [3], halving of growth (GI50 at 72 h) required 16200 nM. The compound further showed a solubility in data set [4] of 56 µg/mL (≈ 85.8 µM). In addition, the remaining at 0.5 h, 1 µM in data set [2] worked out at 87%.

For `CC(C)C1=C(C(=O)N2[C@H](C)CC[C@H]2C(=O)N2CCNC3(CC3)C2)SC2=N[C@@](C)(c3ccc(Cl)cc3)[C@@H](c3ccc(Cl)c(F)c3)N21`, the GI50 with SJSA-1 [1] stood at 350 nM. Also, in data set [3], halving of growth (GI50 at 72 h) required 16700 nM. This compound also yielded a solubility in [4] of 51 µg/mL (≈ 76 µM). For the same compound, the remaining at 0.5 h, 1 µM in data set [2] turned out to be 85%.

As to `CC(C)C1=C(C(=O)N2C[C@H](F)C[C@H]2C(=O)N2CC3(CC3)NC[C@@H]2C)SC2=N[C@@](C)(c3ccc(Cl)nc3)[C@@H](c3ccc(Cl)c(F)c3)N21`, the GI50 with SJSA-1 [1] is 26 nM. The same compound yielded a GI50 at 72 h in data set [3] above 50000 nM. For the same compound, in data set [4], the solubility worked out at 640 µg/mL (≈ 928 µM). Besides, the remaining at 0.5 h, 1 µM in data set [2] was 79%.

`CC(C)C1=C(C(=O)N2[C@H](C)CC[C@H]2C(=O)N2CC3(CC3)NC[C@@H]2C)SC2=N[C@@](C)(c3ccc(Cl)nc3)[C@@H](c3ccc(Cl)c(F)c3)N21` showed a GI50 with SJSA-1 [1] of 240 nM. This compound registered a concentration for 50% growth inhibition (GI50) at 72 h in data set [3] above 50000 nM. In data set [4], this compound gave a solubility of 720 µg/mL (≈ 1050 µM). For the same compound, the remaining at 0.5 h, 1 µM in [2] stood at 100%.

Compound `CC(C)C1=C(C(=O)N2[C@H](C)CC[C@H]2C(=O)N2CCN(C)C3(CC3)C2)SC2=N[C@@](C)(c3ccc(Cl)cc3)[C@@H](c3ccc(Cl)cc3)N21` yielded a GI50 in the data set on SJSA-1 [1] of 1080 nM. Also, in data set [3], it took 17200 nM to inhibit growth by half (GI50 at 72 h). The same compound yielded a solubility in data set [4] of 38 µg/mL (≈ 57 µM). Also, the remaining at 0.5 h, 1 µM in [2] came to 41%.

On to `CC(C)C1=C(C(=O)N2[C@H](C)CC[C@H]2C(=O)N2CCNC3(CC3)C2)SC2=N[C@@](C)(c3ccc(Cl)nc3)[C@@H](c3ccc(Cl)c(F)c3)N21`, for which growth in the data set with SJSA-1 [1] was halved (GI50) at 660 nM. The same compound showed a GI50 at 72 h in data set [3] above 50000 nM. In data set [4], this compound had a solubility of 330 µg/mL (≈ 491 µM). Moreover, in data set [2], the remaining at 0.5 h, 1 µM amounted to 80%.

In the case of `CC[C@@H]1CNC2(CC2)CN1C(=O)[C@@H]1C[C@@H](F)CN1C(=O)C1=C(C(C)C)N2C(=N[C@@](C)(c3ccc(Cl)nc3)[C@H]2c2ccc(Cl)c(F)c2)S1`, in the data set on SJSA-1 [1], the GI50 turned out to be 170 nM. The compound further had a GI50 at 72 h in [3] above 50000 nM. This compound also displayed a solubility in data set [4] of 420 µg/mL (≈ 597 µM). The values for the Cmax in data set [5], in data set [6] and in data set [7] were 6000 ng/mL, 15900 ng/mL and 26100 ng/mL, respectively. In addition, the remaining at 0.5 h, 1 µM in [2] was 84%. Further, the AUC in data set [8] turned out to be 47.1 µg·h/mL; in data set [9], 147 µg·h/mL; in data set [10] it was 259 µg·h/mL. The concentration at 3 h in data set [11] came to 6000 ng/mL; in data set [12], 15900 ng/mL; in [13], 26100 ng/mL. Also, the concentration at 6 h was found to be 3600 ng/mL in data set [14], 12400 ng/mL in [15] and 22300 ng/mL in [16]. The figures for the concentration at 19 h in [17] and in data set [18] were 10 ng/mL and 160 ng/mL, respectively. Also, the concentration at 24 h in [19] turned out to be 20 ng/mL; in data set [20] it was 10 ng/mL. The inhibition in vivo at 100 mg/kg in the data set with SJSA-1 [21] was 96.6%. In the data set with SJSA-1 [22], the inhibition in vivo at 50 mg/kg was found to be 93.7%. Further, the inhibition in vivo at 25 mg/kg with SJSA-1 [23] came out at 72.3%. Further, in the data set on SJSA-1 [24], the inhibition in vivo at 12.5 mg/kg was determined as 29.7%. For the same compound, the Activity is listed as 1.2% in the data set with Mus musculus [25], 0.7% in the data set with Mus musculus [26], 0.2% in the data set with Mus musculus [27] and 0.2% with Mus musculus [28]. The result with SJSA-1 [29], with SJSA-1 [30], in the data set with SJSA-1 [31] and with SJSA-1 [32] was Active.

These data come from ChEMBL document CHEMBL3400057, “Discovery of DS-5272 as a promising candidate: A potent and orally active p53-MDM2 interaction inhibitor” (Bioorg Med Chem, 2015).
